# Values of other authors as cited in PubChem BioAssay AID1259409 (Chemical Carcinogenesis Research Information System (CCRIS), 2018).
# System: rodent chemically induced tumor inhibition, incidence and multiplicity
# Assay: CCRIS tumor inhibitor studies
# Conditions: Dose [Inhibitor]: 0, Route [Inhibitor]: ORAL, Promoter: NONE USED
compound,measurement,setting,value
CN1C(C(=O)Nc2ccccn2)=C(O)c2ccccc2S1(=O)=O,"tumour outcome (control, treated, inhibition, significance)","Carcinogen: 2-ACETYLAMINOFLUORENE, 53-96-3, 130 PPM IN DIET FOR 18 WK BEGINNING 1 WK PRIOR TO CARCINOGEN TREATMENT (STUDY DURATION: 36 WK), Species: RAT, Strain/Sex: ACI/N/MALE, Target Tissue: Type of Lesion: LIVER: TUMOR, Dose [Carcinogen]: 200 PPM IN DIET FOR 16 WK","10/10 (100%), 1/10 (10%), 90%, p=0.00006"
same,"tumour outcome (control, treated, inhibition, significance)","Carcinogen: 4-(METHYLNITROSAMINO)-1-(3-PYRIDYL-1-BUTANONE, 64091-91-4, 25 MG/KG IN DIET FOR 25 WK BEGINNING 2 WK PRIOR TO CARCINOGEN TREATMENT (STUDY DURATION: 25 WK), Species: MOUSE, Strain/Sex: STRAIN-A/FEMALE, Target Tissue: Type of Lesion: FORESTOMACH: TUMOR, Dose [Carcinogen]: 9.1 MG IN DRINKING WATER FOR 7 WK","7/25 (28%), 2/24 (8%), 71%, not significant"
same,"tumour outcome (control, treated, inhibition, significance)","Carcinogen: 7,12-DIMETHYLBENZ[A]ANTHRACENE, 57-97-6, 0.01% IN HIGH-FAT (20% SOYBEAN OIL) DIET FOR 20 WK BEGINNING 1 WK POST CARCINOGEN DOSE (STUDY DURATION: 21 WK), Species: RAT, Strain/Sex: SPRAGUE-DAWLEY/FEMALE, Target Tissue: Type of Lesion: MAMMARY GLAND: ADENOCARCINOMA, Dose [Carcinogen]: 5 MG ONCE","17/20 (85%), 19/21 (90%), -6%, not significant"
same,"tumour outcome (control, treated, inhibition, significance)","Carcinogen: 7,12-DIMETHYLBENZ[A]ANTHRACENE, 57-97-6, 0.01% IN LOW-FAT (0.5% SOYBEAN OIL) DIET FOR 20 WK BEGINNING 1 WK POST CARCINOGEN DOSE (STUDY DURATION: 21 WK), Species: RAT, Strain/Sex: SPRAGUE-DAWLEY/FEMALE, Target Tissue: Type of Lesion: MAMMARY GLAND: ADENOCARCINOMA, Dose [Carcinogen]: 5 MG ONCE","10/18 (56%), 9/20 (45%), 20%, not significant"
same,"tumour outcome (control, treated, inhibition, significance)","Carcinogen: AZOXYMETHANE, 25843-45-2, 25 PPM IN DIET BEGINNING 1 WK POST CARCINOGEN DOSE FOR DURATION OF STUDY (STUDY DURATION: 56 WK), Species: RAT, Strain/Sex: F344/MALE, Target Tissue: Type of Lesion: COLON: ADENOCARCINOMA, Dose [Carcinogen]: 29.6 MG/KG IN NORMAL SALINE ONCE","17/30 (57%), 10/30 (33%), 41%, not calculated"
same,"tumour outcome (control, treated, inhibition, significance)","Carcinogen: AZOXYMETHANE, 25843-45-2, 25 PPM IN DIET BEGINNING 1 WK POST CARCINOGEN DOSE FOR DURATION OF STUDY (STUDY DURATION: 56 WK), Species: RAT, Strain/Sex: F344/MALE, Target Tissue: Type of Lesion: COLON: ADENOMA, Dose [Carcinogen]: 29.6 MG/KG IN NORMAL SALINE ONCE","11/30 (37%), 16/30 (53%), -43%, not calculated"
same,"tumour outcome (control, treated, inhibition, significance)","Carcinogen: AZOXYMETHANE, 25843-45-2, 25 PPM IN DIET BEGINNING 1 WK POST CARCINOGEN DOSE FOR DURATION OF STUDY (STUDY DURATION: 56 WK), Species: RAT, Strain/Sex: F344/MALE, Target Tissue: Type of Lesion: SMALL INTESTINE: ADENOCARCINOMA, Dose [Carcinogen]: 29.6 MG/KG IN NORMAL SALINE ONCE","10/30 (33%), 7/30 (23%), 30%, not calculated"
same,"tumour outcome (control, treated, inhibition, significance)","Carcinogen: AZOXYMETHANE, 25843-45-2, 25 PPM IN DIET BEGINNING 1 WK POST CARCINOGEN DOSE FOR DURATION OF STUDY (STUDY DURATION: 56 WK), Species: RAT, Strain/Sex: F344/MALE, Target Tissue: Type of Lesion: SMALL INTESTINE: ADENOMA, Dose [Carcinogen]: 29.6 MG/KG IN NORMAL SALINE ONCE","1/30 (3%), 0/30 (0%), 100%, not significant"
same,"tumour outcome (control, treated, inhibition, significance)","Carcinogen: AZOXYMETHANE, 25843-45-2, 75 PPM IN DIET BEGINNING 1 WK POST CARCINOGEN DOSE FOR DURATION OF STUDY (STUDY DURATION: 56 WK), Species: RAT, Strain/Sex: F344/MALE, Target Tissue: Type of Lesion: COLON: ADENOCARCINOMA, Dose [Carcinogen]: 29.6 MG/KG IN NORMAL SALINE ONCE","17/30 (57%), 6/30 (20%), 65%, p<0.05"
same,"tumour outcome (control, treated, inhibition, significance)","Carcinogen: AZOXYMETHANE, 25843-45-2, 75 PPM IN DIET BEGINNING 1 WK POST CARCINOGEN DOSE FOR DURATION OF STUDY (STUDY DURATION: 56 WK), Species: RAT, Strain/Sex: F344/MALE, Target Tissue: Type of Lesion: COLON: ADENOMA, Dose [Carcinogen]: 29.6 MG/KG IN NORMAL SALINE ONCE","11/30 (37%), 14/30 (47%), -27%, not calculated"
same,"tumour outcome (control, treated, inhibition, significance)","Carcinogen: AZOXYMETHANE, 25843-45-2, 75 PPM IN DIET BEGINNING 1 WK POST CARCINOGEN DOSE FOR DURATION OF STUDY (STUDY DURATION: 56 WK), Species: RAT, Strain/Sex: F344/MALE, Target Tissue: Type of Lesion: SMALL INTESTINE: ADENOCARCINOMA, Dose [Carcinogen]: 29.6 MG/KG IN NORMAL SALINE ONCE","10/30 (33%), 9/30 (30%), 10%, not calculated"
same,"tumour outcome (control, treated, inhibition, significance)","Carcinogen: AZOXYMETHANE, 25843-45-2, 75 PPM IN DIET BEGINNING 1 WK POST CARCINOGEN DOSE FOR DURATION OF STUDY (STUDY DURATION: 56 WK), Species: RAT, Strain/Sex: F344/MALE, Target Tissue: Type of Lesion: SMALL INTESTINE: ADENOMA, Dose [Carcinogen]: 29.6 MG/KG IN NORMAL SALINE ONCE","1/30 (3%), 2/30 (7%), -133%, not calculated"
same,"tumour outcome (control, treated, inhibition, significance)","Carcinogen: AZOXYMETHANE, 25843-45-2, 75 PPM IN THE DIET FOR 28 WK BEGINNING 2 WK PRIOR TO CARCINOGEN TREATMENT (STUDY DURATION: 30 WK), Species: RAT, Strain/Sex: F344/MALE, Target Tissue: Type of Lesion: COLON: TUMOR, Dose [Carcinogen]: 15 MG/KG BW 1/WK FOR 2 WK","20/43 (47%), 19/56 (34%), 28%, p<0.05"
same,"tumour outcome (control, treated, inhibition, significance)","Carcinogen: AZOXYMETHANE, 25843-45-2, 150 PPM IN DIET BEGINNING 1 WK POST CARCINOGEN DOSE FOR DURATION OF STUDY (STUDY DURATION: 56 WK), Species: RAT, Strain/Sex: F344/MALE, Target Tissue: Type of Lesion: COLON: ADENOCARCINOMA, Dose [Carcinogen]: 29.6 MG/KG IN NORMAL SALINE ONCE","17/30 (57%), 7/30 (23%), 59%, p<0.05"
